According to patent US20020051978A1, “Methods and compositions for the identification, assessment, prevention and therapy of human cancers” (priority 2000, published 2002):
Where two headings read alike, the source gives them in different places.

Legend:
[1] = tested on: 60 cancer cell lines (NCI 60 cancer cell line series); assay: NCI-DTP in vitro cancer screen, sulforhodamine B (SRB) growth inhibition, 48 hour exposure; type: cell-based, human
How it was run: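 Sixty NCI-DTP cancer lines plated at line-specific densities, dosed on day 1 in duplicate with 5 concentrations at ten-fold intervals. After 48 h exposure, cell mass read by SRB staining; GI50 (50% growth inhibition) taken from dose-response curves and expressed as -log GI50.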

[2] = tested on: 60 cancer cell lines (NCI 60 cancer cell line series); conditions: cited from earlier work

Structure (SMILES): N[C@@H](Cc1ccc(N(CCCl)CCCl)cc1)C(=O)O [Melphalan]
- classification of cell line as Low(1), Medium(2) or High(3) sensitivity to compound [1]: 2
- classification of cell line as Low(1), Medium(2) or High(3) sensitivity to compound ([1]; Colon COLO-250 CL4010): 2
- classification of cell line as Low(1), Medium(2) or High(3) sensitivity to compound ([1]; Colon HCC-2998 (CL4002)): 2
- classification of cell line as Low(1), Medium(2) or High(3) sensitivity to compound ([1]; Colon HCT-15 CL4015): 2
- classification of cell line as Low(1), Medium(2) or High(3) sensitivity to compound ([1]; Colon HCT-116 (CL4003)): 2
- classification of cell line as Low(1), Medium(2) or High(3) sensitivity to compound ([1]; Colon HT29(I) CL4001): 1
- classification of cell line as Low(1), Medium(2) or High(3) sensitivity to compound ([1]; Colon KM12 (CL4017)): 1
- classification of cell line as Low(1), Medium(2) or High(3) sensitivity to compound ([1]; Colon SW-620 (CL4009)): 2
- classification of cell line as Low(1), Medium(2) or High(3) sensitivity to compound ([1]; Leukemia CCRF-CEM(I) (CL7003)): 3
- classification of cell line as Low(1), Medium(2) or High(3) sensitivity to compound ([1]; Leukemia HL-60(I) (CL7008)): 3
- classification of cell line as Low(1), Medium(2) or High(3) sensitivity to compound ([1]; Leukemia K562(I) CL7005): 2
- classification of cell line as Low(1), Medium(2) or High(3) sensitivity to compound ([1]; Leukemia MOLT-4 (CL7006)): 3
- classification of cell line as Low(1), Medium(2) or High(3) sensitivity to compound ([1]; Leukemia RPMI-8226(I) (CL7010)): 2
- classification of cell line as Low(1), Medium(2) or High(3) sensitivity to compound ([1]; Leukemia SR CL7019): 3
- classification of cell line as Low(1), Medium(2) or High(3) sensitivity to compound ([1]; Melanoma LOX IMVI CL10001): 2
- classification of cell line as Low(1), Medium(2) or High(3) sensitivity to compound ([1]; Melanoma M14 (CL10014)): 2
- classification of cell line as Low(1), Medium(2) or High(3) sensitivity to compound ([1]; Melanoma MALME-3M CL10002): 2
- classification of cell line as Low(1), Medium(2) or High(3) sensitivity to compound ([1]; Melanoma SK-MEL-2 (CL10005)): 2
- classification of cell line as Low(1), Medium(2) or High(3) sensitivity to compound ([1]; Melanoma SK-MEL-5 (CL10007)): 2
- classification of cell line as Low(1), Medium(2) or High(3) sensitivity to compound ([1]; Melanoma SK-MEL-28 (CL10008)): 2
- classification of cell line as Low(1), Medium(2) or High(3) sensitivity to compound ([1]; Melanoma UACC-62 (CL10020)): 3
- classification of cell line as Low(1), Medium(2) or High(3) sensitivity to compound ([1]; Melanoma UACC-257 (CL10021)): 2
- classification of cell line as Low(1), Medium(2) or High(3) sensitivity to compound ([1]; NSCLC A549/ATCC (CL1004)): 2
- classification of cell line as Low(1), Medium(2) or High(3) sensitivity to compound ([1]; NSCLC EKVX (CL1008)): 2
- classification of cell line as Low(1), Medium(2) or High(3) sensitivity to compound ([1]; NSCLC HOP-62 (CL1026)): 2
- classification of cell line as Low(1), Medium(2) or High(3) sensitivity to compound ([1]; NSCLC HOP-92 (CL1029)): 2
- classification of cell line as Low(1), Medium(2) or High(3) sensitivity to compound ([1]; NSCLC NCI-H226 CL1013): 2
- sensitivity class NSCLC NCI-H23(I) CL1001 ([1]; cell line NSCLC NCI-H23(I), CL1001): 2
- sensitivity class NSCLC NCI-H332M CL1017 ([1]; cell line NSCLC NCI-H332M, CL1017): 1
- sensitivity class NSCLC NCI-H460 CL1021 ([1]; cell line NSCLC NCI-H460, CL1021): 3
- sensitivity class NSCLC NCI-H522 CL1003 ([1]; cell line NSCLC NCI-H522, CL1003): 2
- sensitivity class Ovarian IGROV1 CL6010 ([1]; cell line Ovarian IGROV1, CL6010): 2
- sensitivity class Ovarian OVCAR-3 CL6001 ([1]; cell line Ovarian OVCAR-3, CL6001): 2
- sensitivity class Ovarian OVCAR-4 CL6002 ([1]; cell line Ovarian OVCAR-4, CL6002): 2
- sensitivity class Ovarian OVCAR-5 CL6003 ([1]; cell line Ovarian OVCAR-5, CL6003): 2
- sensitivity class Ovarian OVCAR-8 CL6005 ([1]; cell line Ovarian OVCAR-8, CL6005): 2
- sensitivity class Ovarian SK-OV-3 CL6011 ([1]; cell line Ovarian SK-OV-3, CL6011): 2
- sensitivity class Prostate DU-145 CL11003 ([1]; cell line Prostate DU-145, CL11003): 2
- sensitivity class Prostate PC-3(I) CL11001 ([1]; cell line Prostate PC-3(I), CL11001): 2
- sensitivity class Renal 786-O CL9018 ([1]; cell line Renal 786-O, CL9018): 2
- sensitivity class Renal A498 CL9013 ([1]; cell line Renal A498, CL9013): 1
- sensitivity class Renal ACHN CL9023 ([1]; cell line Renal ACHN, CL9023): 3
- sensitivity class Renal CAKI-1 CL9015 ([1]; cell line Renal CAKI-1, CL9015): 3
- sensitivity class Renal RXF-393 CL9016 ([1]; cell line Renal RXF-393, CL9016): 2
- sensitivity class Renal SN12C CL9008 ([1]; cell line Renal SN12C, CL9008): 2
- sensitivity class Renal TK10 CL9024 ([1]; cell line Renal TK10, CL9024): 1
- sensitivity class Renal UO-31 CL9004 ([1]; cell line Renal UO-31, CL9004): 2
- -Log (GI50) ([2]; Breast BT-549 (CL5013)): 4.4
- -Log (GI50) ([2]; Breast HS-578T CL5006): 4.3
- -Log (GI50) ([2]; Breast MCF7(I) (CL5001)): 5.0
- -Log (GI50) ([2]; Breast MCF7/ADRr (CL5002)): 4.4
- -Log (GI50) ([2]; Breast MDA-MB-231 CL5005): 4.3
- -Log (GI50) ([2]; Breast MDA-MB-435 (CL5011)): 4.4
- -Log (GI50) ([2]; Breast MDA-N CL5012): 4.3
- -Log (GI50) ([2]; Breast T-47D (CL5014)): 4.9
- -Log (GI50) ([2]; CNS SF-268 CL12014): 4.7
- -Log (GI50) ([2]; CNS SF-295 CL12015): 4.7
- -Log (GI50) ([2]; CNS SF-539 CL12016): 4.8
- -Log (GI50) ([2]; CNS SNB-19 (CL12002)): 4.3
- -Log (GI50) ([2]; CNS SNB-75(I) CL12005): 4.5
- -Log (GI50) ([2]; CNS U251(I) CL12009): 4.6
- -Log (GI50) ([2]; Colon COLO-250 CL4010): 4.4
- -Log (GI50) ([2]; Colon HCC-2998 (CL4002)): 4.3
- -Log (GI50) ([2]; Colon HCT-15 CL4015): 4.4
- -Log (GI50) ([2]; Colon HCT-116 (CL4003)): 4.4
- -Log (GI50) ([2]; Colon HT29(I) CL4001): 4.1
- -Log (GI50) ([2]; Colon KM12 (CL4017)): 4.1
- -Log (GI50) ([2]; Colon SW-620 (CL4009)): 4.5
- -Log (GI50) ([2]; Leukemia CCRF-CEM(I) (CL7003)): 5.5
- -Log (GI50) ([2]; Leukemia HL-60(I) (CL7008)): 5.5
- -Log (GI50) ([2]; Leukemia K562(I) CL7005): 4.3
- -Log (GI50) ([2]; Leukemia MOLT-4 (CL7006)): 5.6
- -Log (GI50) ([2]; Leukemia RPMI-8226(I) (CL7010)): 4.4
- -Log (GI50) ([2]; Leukemia SR CL7019): 5.8
- -Log (GI50) ([2]; Melanoma LOX IMVI CL10001): 4.7
- -Log (GI50) ([2]; Melanoma M14 (CL10014)): 4.6
- -Log (GI50) ([2]; Melanoma MALME-3M CL10002): 4.6
- -Log (GI50) ([2]; Melanoma SK-MEL-2 (CL10005)): 4.2
- -Log (GI50) ([2]; Melanoma SK-MEL-5 (CL10007)): 4.4
- -Log (GI50) ([2]; Melanoma SK-MEL-28 (CL10008)): 4.3
- -Log (GI50) ([2]; Melanoma UACC-62 (CL10020)): 4.9
- -Log (GI50) ([2]; Melanoma UACC-257 (CL10021)): 4.4
- -Log (GI50) ([2]; NCSLC NCI-H522 CL1003): 4.6
- -Log (GI50) ([2]; NSCLC A549/ATCC (CL1004)): 4.5
- -Log (GI50) ([2]; NSCLC EKVX (CL1008)): 4.3
- -Log (GI50) ([2]; NSCLC HOP-62 (CL1026)): 4.8
- -Log (GI50) ([2]; NSCLC HOP-92 (CL1029)): 4.4
- -Log (GI50) ([2]; NSCLC NCI-H23(I) CL1001): 4.6
- -Log (GI50) ([2]; NSCLC NCI-H226 CL1013): 4.4
- -Log (GI50) ([2]; NSCLC NCI-H332M CL1017): 4.1
- -Log (GI50) ([2]; NSCLC NCI-H460 CL1021): 5.2
- -Log (GI50) ([2]; Ovarian IGROV1 CL6010): 4.3
- -Log (GI50) ([2]; Ovarian OVCAR-3 CL6001): 4.4
- -Log (GI50) ([2]; Ovarian OVCAR-4 CL6002): 4.4
- -Log (GI50) ([2]; Ovarian OVCAR-5 CL6003): 4.3
- -Log (GI50) ([2]; Ovarian OVCAR-8 CL6005): 4.4
- -Log (GI50) ([2]; Ovarian SK-OV-3 CL6011): 4.5
- -Log (GI50) ([2]; Prostate DU-145 CL11003): 4.3
- -Log (GI50) ([2]; Prostate PC-3(I) CL11001): 4.4
- -Log (GI50) ([2]; Renal 786-O CL9018): 4.8
- -Log (GI50) ([2]; Renal A498 CL9013): 4.0
- -Log (GI50) ([2]; Renal ACHN CL9023): 5.0
- -Log (GI50) ([2]; Renal CAKI-1 CL9015): 5.0
- -Log (GI50) ([2]; Renal RXF-393 CL9016): 4.7
- -Log (GI50) ([2]; Renal SN12C CL9008): 4.8
- -Log (GI50) ([2]; Renal TK10 CL9024): 4.2
- -Log (GI50) ([2]; Renal UO-31 CL9004): 4.3
